The target in one data set is hJNK2 (Homo sapiens, UniProt P45984). In words: hJNK2 | IC50. From the text:
Table printed on a drawing sheet, Fig. 2 Head of the field: hJNK2 | IC50 The patent's description of the figure: FIG. 2: Table illustrating the inhibitory efficacy of several JNK inhibitors (SEQ ID NOs: 193, 2, 3, 5, 6, and 7) according to the present invention. Given are the IC50 values in the nM range, the respective standard error of the mean and the number of experiments performed (n). First copying reader's note: The sheet prints no unit for IC50 and SEM; decimal commas are used and lower-case residue letters are as printed. Where the first naming reader finds the target: head: hJNK2

A further data set has as its target hJNK3 (Homo sapiens, UniProt P53779). In words: hJNK3 | IC50. From the text: Table printed on a drawing sheet, Fig. 2 Head of the field: hJNK3 | IC50 The patent's description of the figure: FIG. 2: Table illustrating the inhibitory efficacy of several JNK inhibitors (SEQ ID NOs: 193, 2, 3, 5, 6, and 7) according to the present invention. Given are the IC50 values in the nM range, the respective standard error of the mean and the number of experiments performed (n). First copying reader's note: The sheet prints no unit for IC50 and SEM; decimal commas are used and lower-case residue letters are as printed. Where the first naming reader finds the target: head: hJNK3

The target in another data set is hJNK1 (Homo sapiens, UniProt P45983). Kind of data set: hJNK1 | IC50. An excerpt: Table printed on a drawing sheet, Fig. 2 Head of the field: hJNK1 | IC50 The patent's description of the figure: FIG. 2: Table illustrating the inhibitory efficacy of several JNK inhibitors (SEQ ID NOs: 193, 2, 3, 5, 6, and 7) according to the present invention. Given are the IC50 values in the nM range, the respective standard error of the mean and the number of experiments performed (n). First copying reader's note: The sheet prints no unit for IC50 and SEM; decimal commas are used and lower-case residue letters are as printed. Where the first naming reader finds the target: head: hJNK1
Sequence of hJNK1 (P45983 whole entry, looked up): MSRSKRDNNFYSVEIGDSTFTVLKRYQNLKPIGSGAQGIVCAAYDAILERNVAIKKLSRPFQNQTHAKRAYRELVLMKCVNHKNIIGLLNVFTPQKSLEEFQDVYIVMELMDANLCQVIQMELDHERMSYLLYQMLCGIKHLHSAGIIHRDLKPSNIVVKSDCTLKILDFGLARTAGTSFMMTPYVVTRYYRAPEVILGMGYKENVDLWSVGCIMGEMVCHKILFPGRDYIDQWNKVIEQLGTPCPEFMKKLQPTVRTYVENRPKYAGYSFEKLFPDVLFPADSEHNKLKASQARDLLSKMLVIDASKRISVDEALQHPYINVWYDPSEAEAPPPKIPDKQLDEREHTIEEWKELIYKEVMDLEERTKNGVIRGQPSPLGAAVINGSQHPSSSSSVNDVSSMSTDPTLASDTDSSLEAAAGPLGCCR

The subject of data set [1] is endotoxins-induced uveitis albino rat model. Kind of data set: Endotoxins induced uveitis (EIU), single intravenous injection, clinical scoring 24 hours after LPS. Details: key to clinical score of ocular inflammation, mean score (mean±SEM) / clinical score of ocular inflammation, median: ocular inflammation score per eye, 0 = none to 4 = intense (+1 fibrin). The data set is classed as in vivo. Particulars: 20 μg/eye sub-conjunctival, 24 hours after LPS. The method, then: FIG. 28 Clinical evaluation of administration of different amounts of the JNK inhibitor according to SEQ ID NO: 172 in albino rats after intravenous administration (endotoxins induced uveitis model). Form left to right: Vehicle, 0.015 mg/kg (i.v.) of SEQ ID NO: 172; 0.18 mg/kg (i.v.) of SEQ ID NO: 172; 1.8 mg/kg (i.v.) of SEQ ID NO: 172, 2 mg/kg (i.v.) of SEQ ID NO: 197 and 20 μg dexamethasone (administered directly by subconjunctival injection to the eye). Indicated is the clinical score (mean and the SEM).
The anti-inflammatory potency of the JNK inhibitor of SEQ ID NO: 172 was tested in albino rats following intravenous administration (EIU/LPS model). The aim of this study was to determine the effects of single intravenous injections of SEQ ID NO: 172 (0.015, 0.18, and 1.80 mg/kg) on the inflammatory response in an endotoxins-induced uveitis albino rat model and to compare these affects to those obtained with prior art JNK inhibitor of SEQ ID NO: 197 (2 mg/kg). As a further control served phosphate sodic dexamethasone.
Sixty (60) male Lewis rats were randomly divided into six (6) groups of ten (10) animals each. EIU was induced by footpad injection of lipopolysaccharide (LPS, 1 mg/kg). NaCl (0.9%), SEQ ID NO: 197 at 2 mg/kg and SEQ ID NO: 172 at three concentrations (1.80 mg/kg, 0.18 mg/kg and 0.015 mg/kg) were administered by intravenous injection. Phosphate sodic dexamethasone ([…]) was administered by sub-conjunctival injection in both eyes. 24 hours after LPS injection, inflammatory response was evaluated by clinical scoring.
The intensity of clinical ocular inflammation was scored on a scale from 0 to 4 for each eye: • Grade 0 no inflammation • Grade 1 slight iris and conjunctival vasodilation • Grade 2 moderate iris and conjunctival vasodilation with flare • Grade 3 intense iris and conjunctival vasodilation with flare • Grade 4 intense inflammatory reaction • (+1) fibrin formation and seclusion of pupils

Data set [2] in a line: Stability (half-life) in human serum, intact peptide by UPLC-MS. The data set is classed as in vitro ADME. Particulars: human serum (50% in FIG. 5; 10 and 50% in PBS), 0.1 mM peptide. The method, then:
FIG. 5: Stability of JNK inhibitors with SEQ ID NOs: 172, 196 and 197 in 50% human serum. The JNK inhibitor with SEQ ID NO: 196 was totally degraded into amino acids residues within 6 hours (A). The JNK inhibitor with SEQ ID NO: 172 was completely degraded only after 14 days (B). The JNK inhibitor with SEQ ID NO: 197 was stable at least up to 30 days (B).
The JNK inhibitors with the sequence of SEQ ID NOs: 196, 197, and 172 (0.1 mM final concentration) were digested in human serum (10 and 50% in PBS 1×). The experiment was performed as described by Tugyi et al. (Proc Natl Acad Sci USA, 2005, 413-418). The remaining intact peptide was quantified by UPLC-MS. Stability was assessed for SEQ ID NOs: 196, 197, and 172 identically but in two separate assays. While the JNK inhibitor with SEQ ID NO: 196 was totally degraded into amino acids residues within 6 hours, the JNK inhibitor with SEQ ID NO: 172 was completely degraded only after 14 days. The JNK inhibitor with SEQ ID NO: 197 was still stable after 30 days.

The subject of another data set is Hela cells. In words: Internalization of transporter constructs, 24 hours, fluorescence of cell extracts (FIG. 6). The data set is classed as cell-based. The method, then:
The transporter sequences analyzed correspond to SEQ ID NOs: 52-94 plus SEQ ID NOs: 45, 47, 46, 43 and 99 (FIG. 6a) and SEQ ID NOs: 100-147 (FIG. 6b). […] Hela cells were incubated 24 hours in 96 well plate with […] of the respective transporters. The cells were then washed twice with an acidic buffer (0.2M Glycin, 0.15M NaCl, pH 3.0) and twice with PBS. Cells were broken by the addition of RIPA lysis buffer. The relative amount of internalized peptide was then determined by reading the fluorescence intensity (Fusion Alpha plate reader; PerkinElmer) of each extract followed by background subtraction.
Hela cells were incubated 24 hours in 96 well plate with […] of the r3-L-TAT-derived transporters. The cells were then washed twice with an acidic buffer (0.2M Glycin, 0.15M NaCl, pH 3.0) and twice with PBS. Cells were broken by the addition of RIPA lysis buffer. The relative amount of internalized peptide was then determined by reading the fluorescence intensity (Fusion Alpha plate reader; PerkinElmer) of each extract followed by background subtraction

Square brackets hold non-standard residues; d marks the D form. Ends that are not written are not given here. Peptide text beside a SMILES is read from it.

These results are taken from patent publication US10596223B2, “JNK inhibitor molecules for treatment of various diseases” (Xigen Inflammation Ltd., priority 2011, dated 2020).

Sequence of hJNK3 (P53779 whole entry, looked up): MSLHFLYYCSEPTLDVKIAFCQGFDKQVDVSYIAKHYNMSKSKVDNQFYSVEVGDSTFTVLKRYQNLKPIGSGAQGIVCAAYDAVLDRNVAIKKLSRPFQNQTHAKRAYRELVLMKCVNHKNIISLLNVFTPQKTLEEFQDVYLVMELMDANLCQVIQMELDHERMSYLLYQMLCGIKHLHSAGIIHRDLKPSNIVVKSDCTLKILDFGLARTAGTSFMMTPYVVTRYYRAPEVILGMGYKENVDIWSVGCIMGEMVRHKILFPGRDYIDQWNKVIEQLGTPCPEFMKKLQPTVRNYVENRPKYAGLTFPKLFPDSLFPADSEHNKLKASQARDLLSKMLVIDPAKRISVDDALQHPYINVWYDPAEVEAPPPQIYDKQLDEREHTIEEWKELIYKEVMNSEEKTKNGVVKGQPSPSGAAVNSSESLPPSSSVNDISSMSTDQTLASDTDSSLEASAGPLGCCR
Sequence of hJNK2 (P45984 whole entry, looked up): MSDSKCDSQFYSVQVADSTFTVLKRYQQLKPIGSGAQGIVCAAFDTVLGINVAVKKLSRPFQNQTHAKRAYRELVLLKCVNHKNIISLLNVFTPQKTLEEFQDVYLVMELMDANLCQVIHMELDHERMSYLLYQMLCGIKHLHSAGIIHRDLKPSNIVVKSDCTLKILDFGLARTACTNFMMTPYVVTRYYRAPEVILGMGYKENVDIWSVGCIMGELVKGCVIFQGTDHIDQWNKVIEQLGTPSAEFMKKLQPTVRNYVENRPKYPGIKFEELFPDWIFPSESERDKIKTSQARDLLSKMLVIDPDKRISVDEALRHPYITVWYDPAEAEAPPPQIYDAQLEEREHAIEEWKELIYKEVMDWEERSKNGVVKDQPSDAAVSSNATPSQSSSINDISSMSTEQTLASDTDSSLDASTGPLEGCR

With `CC(C)C[C@H](NC(=O)[C@H](CC(N)=O)NC(=O)[C@H](CC(C)C)NC(=O)[C@@H](NC(=O)[C@@H](NC(=O)[C@@H]1CCCN1C(=O)[C@H](CCCNC(=N)N)NC(=O)[C@H](CCCCN)NC(=O)[C@@H]1CCCN1C(=O)[C@H](N)CCCNC(=N)N)[C@@H](C)O)[C@@H](C)O)C(=O)N[C@@H](Cc1ccccc1)C(N)=O` [SEQ ID NO: 2] (H-[dR]PKRPTTLNLF-NH2), the figures for the IC50 against hJNK2 and against hJNK3 were 424 nM and 103 nM, respectively.
Turning to `CC(C)C[C@H](NC(=O)[C@H](CC(N)=O)NC(=O)[C@H](CC(C)C)NC(=O)[C@@H](NC(=O)[C@@H](NC(=O)[C@@H]1CCCN1C(=O)[C@H](CCCNC(=N)N)NC(=O)[C@@H](CCCCN)NC(=O)[C@@H]1CCCN1C(=O)[C@@H](N)CCCNC(=N)N)[C@@H](C)O)[C@@H](C)O)C(=O)N[C@@H](Cc1ccccc1)C(N)=O` [SEQ ID NO: 3] (H-RP[dK]RPTTLNLF-NH2), the values for the IC50 against hJNK2, against hJNK1 and against hJNK3 were 1210 nM, 312 nM and 359 nM, respectively.
As for `CC(C)C[C@H](NC(=O)[C@@H](NC(=O)[C@@H](NC(=O)[C@@H]1CCCN1C(=O)[C@H](CCCNC(=N)N)NC(=O)[C@H](CCCCN)NC(=O)[C@@H]1CCCN1C(=O)[C@@H](N)CCCNC(=N)N)[C@@H](C)O)[C@@H](C)O)C(=O)N[C@H](CC(N)=O)C(=O)N[C@@H](CC(C)C)C(=O)N[C@@H](Cc1ccccc1)C(N)=O` [SEQ ID NO: 5] (H-RPKRPTTL[dN]LF-NH2), the IC50 against hJNK1 came to 348 nM; on hJNK3, 387 nM.
On to `CC(C)C[C@H](NC(=O)[C@@H](NC(=O)[C@@H](NC(=O)[C@@H]1CCCN1C(=O)[C@H](CCCNC(=N)N)NC(=O)[C@H](CCCCN)NC(=O)[C@@H]1CCCN1C(=O)[C@@H](N)CCCNC(=N)N)[C@@H](C)O)[C@@H](C)O)C(=O)N[C@H](CCCNC(=N)N)C(=O)N[C@@H](CC(C)C)C(=O)N[C@@H](Cc1ccccc1)C(N)=O` [SEQ ID NO: 6] (H-RPKRPTTL[dR]LF-NH2), for which the IC50 on hJNK2 was found to be 359 nM; at hJNK1, 90.5 nM; at hJNK3, 120 nM.
For the molecule `CC(C)C[C@H](NC(=O)[C@H](CC(N)=O)NC(=O)[C@H](CC(C)C)NC(=O)[C@@H](NC(=O)[C@@H](NC(=O)[C@@H]1CCCN1C(=O)[C@H](CCCNC(=N)N)NC(=O)[C@H](CCCCN)NC(=O)[C@@H]1CCCN1C(=O)[C@@H](N)CCCNC(=N)N)[C@@H](C)O)[C@@H](C)O)C(=O)N[C@H](Cc1ccccc1)C(N)=O` [SEQ ID NO: 7] (H-RPKRPTTLNL[dF]-NH2), the IC50 at hJNK2 came to 278 nM; against hJNK3 it was 89 nM.
Regarding `C[C@@H]1C[C@H]2[C@@H]3CCC4=CC(=O)C=C[C@]4(C)[C@@]3(F)[C@@H](O)C[C@]2(C)[C@@]1(O)C(=O)CO` [dexamethasone, reference compound], in data set [1], the “clinical score of ocular inflammation, mean score (mean±SEM)” value came out at 0.8±0.2 and the “clinical score of ocular inflammation, median” value is recorded as 0.5.
Take “GRKKRRQRRRPPRPKRPTTLNLFPQVPRSQD [SEQ ID NO: 196, reference compound]”: the “totally degraded into amino acids residues within” value in data set [2] is at most 6 h.
For the molecule H-RPKRPTTLNLF-NH2 [SEQ ID NO: 193], the IC50 on hJNK2 came out at 184 nM; on hJNK1 it was 39.5 nM; against hJNK3 it was 67.7 nM.
Consider “rYKRrQRRr ([dR]YKR[dR]QRR[dR]) [SEQ ID NO: 142]”, for which the “transporter activity (Y in position 2)” value with Hela cells is “highest transporter activity”.
